How the values were obtained:
K562 cells [1] = test: Cell cycle analysis (PI staining, flow cytometry); type: cell-based; details: for effect on cell cycle (in words): K562, 24 h, C2 1.25–5.0 µM, olaparib and chlorambucil 2.5–10 µM
Protocol: K562 and HCC1937 cells were incubated with different doses of molecule C2, olaparib, or chlorambucil for 24 h. After treatment, cells were collected and fixed with 70% pre-chilled ethanol in PBS and stored at −20°C overnight. The cells were then washed twice with PBS, incubated with 100 μg/ml RNase I (Solarbio, China) at 37°C for 1 h, and stained with propidium iodide (PI, 10 μg/ml, Solarbio, China) for 30 min, in the dark, at room temperature. Finally, the DNA content was measured using flow cytometry (FACSAria III, Becton Dickinson, United States). The data were analyzed and fitted using ModFit software.

PARP1 = PARP1 (Homo sapiens, UniProt P09874); test: PARP1 enzyme inhibitory assay; type: biochemical; details: Table 2, B and C series; mean of three experiments
Sequence of PARP1 (P09874 whole entry): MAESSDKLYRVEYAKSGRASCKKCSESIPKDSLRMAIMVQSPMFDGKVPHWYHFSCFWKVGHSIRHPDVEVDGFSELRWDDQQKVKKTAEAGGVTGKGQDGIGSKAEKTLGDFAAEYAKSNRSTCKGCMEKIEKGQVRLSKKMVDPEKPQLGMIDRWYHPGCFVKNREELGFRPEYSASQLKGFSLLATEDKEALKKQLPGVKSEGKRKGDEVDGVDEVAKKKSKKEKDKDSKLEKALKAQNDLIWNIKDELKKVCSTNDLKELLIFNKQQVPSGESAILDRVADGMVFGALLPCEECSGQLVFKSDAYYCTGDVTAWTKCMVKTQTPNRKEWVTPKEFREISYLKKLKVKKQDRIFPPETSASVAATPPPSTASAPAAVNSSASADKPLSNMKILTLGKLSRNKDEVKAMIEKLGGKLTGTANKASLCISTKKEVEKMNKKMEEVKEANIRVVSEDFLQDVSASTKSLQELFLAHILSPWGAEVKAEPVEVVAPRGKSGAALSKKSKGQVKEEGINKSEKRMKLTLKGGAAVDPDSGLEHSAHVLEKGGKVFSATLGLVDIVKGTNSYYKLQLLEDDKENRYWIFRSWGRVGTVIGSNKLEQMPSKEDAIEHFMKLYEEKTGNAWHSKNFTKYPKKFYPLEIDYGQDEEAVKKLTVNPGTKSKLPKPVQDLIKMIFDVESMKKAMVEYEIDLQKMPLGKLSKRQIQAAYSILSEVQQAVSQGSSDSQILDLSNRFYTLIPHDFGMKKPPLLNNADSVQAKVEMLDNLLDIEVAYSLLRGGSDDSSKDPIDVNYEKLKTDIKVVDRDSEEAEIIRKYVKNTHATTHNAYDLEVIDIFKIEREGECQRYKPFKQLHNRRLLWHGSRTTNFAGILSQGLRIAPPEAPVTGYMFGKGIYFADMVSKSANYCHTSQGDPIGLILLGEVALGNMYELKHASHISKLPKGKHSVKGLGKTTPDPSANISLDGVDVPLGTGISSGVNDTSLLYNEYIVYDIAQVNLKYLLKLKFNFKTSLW

K562 cells [2] = test: Cell apoptosis analysis (Annexin V-BV421/7-AAD, flow cytometry); type: cell-based; details: 24 h, control .90%
Protocol: K562 cells were treated with various concentrations of molecule C2, olaparib, or chlorambucil for 24 h. Cells were then harvested and washed twice with PBS and then resuspended with binding buffer (Becton Dickinson, United States). Cells were incubated with Annexin V-BV421 (Becton Dickinson, United States) and 7-AAD (Becton Dickinson, United States) for double labeling for 30 min, in the dark, at room temperature, followed by analysis using flow cytometry (FACSAria III, Becton Dickinson, United States). The data were analyzed using FlowJo v10 software.

A549 cells = test: In vitro antiproliferative assay (CCK-8); type: cell-based; details: Homo sapiens; A549, without BRCA mutations; CCK-8, 72 h; mean of three
Protocol: (§1) The proliferation of cancer cells was tested by CCK-8 assay. Briefly, cells were seeded in 96-well plates at approximately 5 × 10^3 cells per well. The cells were treated with test compounds after 24 h of incubation. CCK-8 reagent ([…]) was added to each well after 72 h of incubation, and the cells were then incubated at 37°C for 4 h. The light absorbance at 450 nm was measured using an Opsys microplate reader (Dynex Technologies, Chantilly, VA, United States). Results are illustrated as percentage viability normalized to DMSO-treated control cells.

Capan-1 cells = test: In vitro antiproliferative assay (CCK-8); type: cell-based; details: Homo sapiens; Capan-1, BRCA-mutated; CCK-8, 72 h; mean of three
Protocol: as §1

MDA-MB-436 cells = test: In vitro antiproliferative assay (CCK-8); type: cell-based; details: Homo sapiens; MDA-MB-436, BRCA-mutated; CCK-8, 72 h; mean of three
Protocol: as §1

SW620 cells = test: In vitro antiproliferative assay (CCK-8); type: cell-based; details: Homo sapiens, SW-620; SW620, without BRCA mutations; CCK-8, 72 h; mean of three
Protocol: as §1

Raji cells = test: In vitro antiproliferative assay (CCK-8); type: cell-based; details: Homo sapiens, without BRCA mutations, CCK-8, 72 h, mean of three
Protocol: as §1

MCF-7 cells = test: In vitro antiproliferative assay (CCK-8); type: cell-based; details: Homo sapiens, MCF7; MCF-7, without BRCA mutations; CCK-8, 72 h; mean of three
Protocol: as §1

HCC1937 cells = test: In vitro antiproliferative assay (CCK-8); type: cell-based; details: Homo sapiens; HCC1937, BRCA-mutated; CCK-8, 72 h; mean of three
Protocol: as §1

8226 cells = test: In vitro antiproliferative assay (CCK-8); type: cell-based; details: 8226, without BRCA mutations; CCK-8, 72 h; mean of three
Protocol: as §1

SKOV3 cells = test: In vitro antiproliferative assay (CCK-8); type: cell-based; details: Homo sapiens, SK-OV-3; SKOV3, without BRCA mutations; CCK-8, 72 h; mean of three
Protocol: as §1

MDA-MB-231 cells = test: In vitro antiproliferative assay (CCK-8); type: cell-based; details: Homo sapiens; MDA-MB-231, without BRCA mutations; CCK-8, 72 h; mean of three
Protocol: as §1

CH151 cells = test: In vitro antiproliferative assay (CCK-8); type: cell-based; details: CH151, without BRCA mutations; CCK-8, 72 h; mean of three
Protocol: as §1

K562 cells [3] = test: In vitro antiproliferative assay (CCK-8); type: cell-based; details: Homo sapiens; K562, without BRCA mutations; CCK-8, 72 h; mean of three
Protocol: as §1

Hela cells = test: In vitro antiproliferative assay (CCK-8); type: cell-based; details: Homo sapiens, without BRCA mutations, CCK-8, 72 h, mean of three
Protocol: as §1

B16 cells = test: In vitro antiproliferative assay (CCK-8); type: cell-based; details: Mus musculus; B16, without BRCA mutations; CCK-8, 72 h; mean of three
Protocol: as §1

U251 cells = test: In vitro antiproliferative assay (CCK-8); type: cell-based; details: Homo sapiens, U-251; U251, without BRCA mutations; CCK-8, 72 h; mean of three
Protocol: as §1

U87 cells = test: In vitro antiproliferative assay (CCK-8); type: cell-based; details: Homo sapiens, U-87 MG; U87, without BRCA mutations; CCK-8, 72 h; mean of three
Protocol: as §1

[4] = set-up: method as in Jackson and Chester, 2015; details: ref Jackson and Chester, 2015; cited from earlier work
[5] = set-up: method as in Gala et al., 2020; details: in both aqueous and lipophilic solutions; ref Gala et al., 2020; cited from earlier work

O=C(CCCc1ccc(N(CCCl)CCCl)cc1)N1CCN(C(=O)c2cc(Cc3n[nH]c(=O)c4ccccc34)ccc2F)CC1 [C2, 4-(3-(4-(4-(4-(Bis(2-chloroethyl)amino)phenyl)butanoyl)piperazine-1-carbonyl)-4-fluorobenzyl)phthalazin-1(2H)-one]
effect on cell cycle (in words) (K562 cells [1]): increased cell number at the G2/M phase in a dose-dependent manner
IC50 (PARP1): 0.0009 ± 8e-05 µM
percentage of apoptotic cells (apoptotic rate) (K562 cells [2]; K562, 1 μM): 10.96%
percentage of apoptotic cells (apoptotic rate) (K562 cells [2]; K562, 2 µM): 12.69%
IC50 (A549 cells): 2.01 ± 0.13 µM
IC50 (Capan-1 cells): 0.086 ± 0.006 µM
IC50 (MDA-MB-436 cells): 0.013 ± 0.001 µM
IC50 (SW620 cells): 6.41 ± 0.46 µM
IC50 (Raji cells): 1.21 ± 0.02 µM
IC50 (MCF-7 cells): 2.28 ± 0.11 µM
IC50 (HCC1937 cells): 0.18 ± 0.01 µM
IC50 (8226 cells): 3.62 ± 0.2 µM
IC50 (SKOV3 cells): 4.04 ± 0.25 µM
IC50 (MDA-MB-231 cells): 6.33 ± 0.35 µM
IC50 (CH151 cells): 2.77 ± 0.13 µM
IC50 (K562 cells [3]): 1.12 ± 0.08 µM
IC50 (Hela cells): 1.65 ± 0.11 µM
IC50 (B16 cells): 11.7 ± 1.01 µM
IC50 (U251 cells): 2.58 ± 0.14 µM
IC50 (U87 cells): 2.86 ± 0.01 µM

O=C(O)CCCc1ccc(N(CCCl)CCCl)cc1 [Chlorambucil]
proportion of cells in the G2/M phase (K562 cells [1]; K562, 10 µM, 24 h): 61.60%
effect on cell cycle (in words) (K562 cells [1]): increased cell number at the G2/M phase in a dose-dependent manner
percentage of apoptotic cells (apoptotic rate) (K562 cells [2]; K562, 5 μM): 2.49%
percentage of apoptotic cells (apoptotic rate) (K562 cells [2]; K562, 10 µM): 2.96%
IC50 (A549 cells): 89.4 ± 3.4 µM
IC50 (Capan-1 cells): > 1 µM
IC50 (MDA-MB-436 cells): > 1 µM
IC50 (SW620 cells): 10 ± 1.01 µM
IC50 (Raji cells): 40.6 ± 3.6 µM
IC50 (MCF-7 cells): 19.5 ± 1.7 µM
IC50 (HCC1937 cells): > 1 µM
IC50 (8226 cells): > 100 µM
IC50 (SKOV3 cells): 3.98 ± 0.22 µM
IC50 (MDA-MB-231 cells): 95.3 ± 5.7 µM
IC50 (CH151 cells): > 100 µM
IC50 (K562 cells [3]): > 20 µM
IC50 (Hela cells): > 100 µM
IC50 (B16 cells): > 100 µM
IC50 (U251 cells): 21.1 ± 1.8 µM
IC50 (U87 cells): > 100 µM

O=C(c1cc(Cc2n[nH]c(=O)c3ccccc23)ccc1F)N1CCN(C(=O)C2CC2)CC1 [Olaparib]
pharmacokinetics profiles and bioavailability [4]: relatively poor
effect on cell cycle (in words) (K562 cells [1]): did not exhibit any effects
percentage of apoptotic cells (apoptotic rate) (K562 cells [2]; K562, 5 μM): 1.53%
percentage of apoptotic cells (apoptotic rate) (K562 cells [2]; K562, 10 µM): 1.91%
IC50 (A549 cells): 1.62 ± 0.11 µM
IC50 (Capan-1 cells): 0.129 ± 0.011 µM
IC50 (MDA-MB-436 cells): 0.047 ± 0.003 µM
IC50 (SW620 cells): 17.7 ± 1.2 µM
IC50 (Raji cells): 4.4 ± 0.33 µM
IC50 (MCF-7 cells): 30.6 ± 2.1 µM
IC50 (HCC1937 cells): 0.24 ± 0.01 µM
IC50 (8226 cells): 66.8 ± 5.5 µM
IC50 (SKOV3 cells): 12.8 ± 1.2 µM
IC50 (MDA-MB-231 cells): 53.8 ± 3.6 µM
IC50 (CH151 cells): 24.9 ± 1.5 µM
IC50 (K562 cells [3]): 10.4 ± 0.72 µM
IC50 (Hela cells): 11.6 ± 1.01 µM
IC50 (B16 cells): > 100 µM
IC50 (U251 cells): > 100 µM
IC50 (U87 cells): 26 ± 1.2 µM
solubility [5]: low solubility

Source: PMC9868654, “Discovery of a potent olaparib–chlorambucil hybrid inhibitor of PARP1 for the treatment of cancer” (Frontiers in Pharmacology, 2023)
